These results are taken from patent publication US20150079174A1, “ANTIMICROBIAL COMPLEXES” (Matera, LDA, priority 2012, published 2015).

Each structure is given as a SMILES string. Where two headings read alike, the source gives them in different places.

For data set [1], the system named is Escherichia coli ATCC 25922. The experiment in a line: Minimal inhibitory concentration (growth kinetics at 600 nm / broth microdilution). The conditions noted are these: for MIC: Escherichia coli, ATCC25922, 18 h. On the technique in general: In broth dilution the organism is exposed to a series of concentrations in liquid medium.
Protocol: (§1) Growth kinetics of Candida albicans ATCC 10231 (C. albicans, fungi), Staphylococcus aureus ATCC 6538 (S. aureus, gram-positive bacteria) and Escherichia coli ATCC 25922 (E. coli, gram-negative bacteria) (1×10^5 cells/ml) exposed to variable concentrations (from 62.5 to 500 μg/ml for fungi and from 15.6 to 500 μg/ml for S. aureus and E. coli) of the surfactants was evaluated by absorbance at 600 nm. Inoculum corresponds to prokaryotic cells incubated without surfactants. The samples were prepared in a 96-well plate and incubated for 18 h at 30° C. (fungi) or 37° C. (bacteria) with constant shaking in a Biotek Synergy Mx spectrophotometer.
(§2) Minimum inhibitory concentrations (MICs) were determined by the broth microdilution method according to the National Committee for Clinical Laboratory Standard (for yeasts; NCCLS; M27A2E) and the Clinical and Laboratory Standards Institute (for bacteria; CLSI; M07-A8) guidelines.
(§3) Inoculum corresponds to prokaryotic cells incubated without SNPs. The samples were prepared as described above.
(§4) Typically, SWCNTs coated with DDAB or other surfactants were diluted taking in account the initial surfactant concentration being the SWCNT concentration estimated by the corresponding mass ratio used. The antimicrobial activity of the coated SWCNTs was tested in suspension against Candida albicans ATCC 10231 (C. albicans, fungi), Staphylococcus aureus ATCC 6538 (S. aureus, bacteria gram-positive) and Escherichia coli ATCC 25922 (E. coli, bacteria gram-negative). Yeast Peptone Dextrose (YPD) and Tryptone Soy Yeast (TSY) media were used to culture yeast and bacteria, respectively. […] Inoculum corresponds to cells incubated without CNTs. The samples were prepared in a 96-well plate and incubated for 18 h at 30° C. (fungi) or 37° C. (bacteria) with constant shaking in a Biotek Synergy Mx spectrophotometer.
Data set [2] can be described thus: Critical micelle concentration (CMC) with fluorescent probe N-phenyl-1-naphthylamine. The conditions noted are these: surfactant in PBS pH 7.4. The data set is classed as physicochemical. The method, then: Critical Micelle Concentration (CMC) was determined for a range of surfactants, following the method described by Brito et al. ‘Determination of the critical micelle concentration of surfactants using the fluorescent probe N-phenyl-1-naphthylamine.’ Anal. Biochem 1986 (152) 250-255.
Briefly, the surfactants were dissolved in PBS (pH 7.4), serially diluted and mixed with N-phenyl-1-naphthylamine (NPN; TCI). The fluorescence of each sample was quantified (excitation at 350 nm; emission at 420 nm) and plotted against the concentration of each surfactant. The CMC was found at the intersection of two straight lines traced on the emission intensity plot, defining the aqueous and micellar environments.
The evolution of SWCNTs resuspension was performed by optical density measurement (at 600 nm) on a microplate reader. N-phenyl-1-naphthylamine (NPN) (Sigma-Aldrich) was used to determine the DDAB critical micelle concentration (CMC) and the presence of micelles on the SWCNT suspension. A solution of NPN of 2×10^−1 M in ethanol was prepared and further diluted in PBS to the working concentration of 2×10^−4 M. DDAB or SWCNT-DDAB suspensions were mixed in equal volumes on a opaque 96-well plate and the fluorescence measured with the assistance of a SpectraMax Fluoremeter using an excitation and emission wavelength of 320 and 450 nm, respectively.

For data set [3], the system named is Candida albicans ATCC 10231. Briefly: Minimal inhibitory concentration (growth kinetics at 600 nm / broth microdilution). The following applies: for MIC: Candida albicans, ATCC10231, 18 h.
Protocol: as §1, §2, §3, §4
Data set [4] concerns Staphylococcus aureus ATCC 6538. The data set is described as above. The conditions noted are these: for MIC: Staphylococcus aureus, ATCC6538, 18 h.
Protocol: as §1, §2, §3, §4
Where [5] appears, read: read-out: MIC S. aureus, soluble surfactant, 15.6 to 500 μg/ml, 18 h at 37° C.
Where [6] appears, read: soluble surfactant, 15.6 to 500 μg/ml, 18 h at 37° C.

Turning to `CCCCCCCCCCCC[N+](C)(C)CCCCCCCCCCCC.[Br-]` [DDAB, didodecyldimethylammonium bromide], the MIC in data set [1] (read-out: MIC E. coli) came out at 125 µg/mL; in data set [3] (read-out: MIC C. albicans, soluble surfactant, 62.5 to 500 μg/ml, 18 h at 30° C.), 125 µg/mL; in data set [4] (setting [5]), 31.2 µg/mL. The CMC in data set [2] was determined as 32.4 µg/mL. Also, the “MIC C. albicans” value in data set [3] (soluble surfactant, 62.5 to 500 μg/ml, 18 h at 30° C.) stood at 250 µg/mL. Further, the “MIC S. aureus” value in data set [4] (setting [6]) was 31.3 µg/mL.
In data set [2], `CCCCCCCCCCCCCCCC[N+](C)(C)CCCCCCCCCCCCCCCC.[Br-]` [DHDAB, dihexadecyldimethylammonium bromide] came in with a CMC of 5.2 µg/mL.
`CCCCCCCCCCCC[N+](C)(C)C.[Br-]` [DTAB, dodecyltrimethylammonium bromide]: the MIC in data set [1] (read-out: MIC E. coli, soluble surfactant, 15.6 to 500 μg/ml, 18 h at 37° C.) is 125 µg/mL; in data set [3] (read-out: MIC C. albicans), 250 µg/mL; in data set [4] (read-out: MIC S. aureus) it was 31.2 µg/mL. For the same compound, in data set [1] (setting [6]), the “MIC E. coli” value was found to be 62.5 µg/mL. The compound also showed a CMC in data set [2] of 3515.1 µg/mL.
`CCCCCCCCCCCCCC[N+](C)(C)CCCCCCCCCCCCCC.[Br-]` [DTDAB, ditetradecyldimethylammonium bromide]: the CMC in data set [2] amounted to 7.8 µg/mL.
For `CCCCCCCCCCCC[N+](C)(CCCCCCCCCCCC)CCCCCCCCCCCC.[Cl-]` [TMAC, tridodecylmethylammonium chloride], the CMC in data set [2] stood at 246.2 µg/mL. Further, in data set [4] (setting [5]), the MIC worked out at 125 µg/mL.
